Assay results taken from article PMC7586344, “Discovery of Novel pERK1/2- or β-Arrestin-Preferring 5-HT1A Receptor-Biased Agonists: Diversified Therapeutic-like versus Side Effect Profile” (Journal of Medicinal Chemistry, 2020).

What was measured:
hERG channel = target: T1, hERG channel (Homo sapiens, UniProt Q12809); experiment: hERG-CHO automated patch-clamp; type: cell-based
T1 construct: host or cells: CHO (hERG-CHO)

5-HT2B = target: T2, 5-HT2B (Homo sapiens, UniProt P41595); experiment: Off-target binding screen; settings: 1000 nM, read-out: % Inhibition of Control Specific Binding
T2 construct: Eurofins Pharma Discovery Services (contract screen)
T2 sequence (P41595 whole entry, species assumed): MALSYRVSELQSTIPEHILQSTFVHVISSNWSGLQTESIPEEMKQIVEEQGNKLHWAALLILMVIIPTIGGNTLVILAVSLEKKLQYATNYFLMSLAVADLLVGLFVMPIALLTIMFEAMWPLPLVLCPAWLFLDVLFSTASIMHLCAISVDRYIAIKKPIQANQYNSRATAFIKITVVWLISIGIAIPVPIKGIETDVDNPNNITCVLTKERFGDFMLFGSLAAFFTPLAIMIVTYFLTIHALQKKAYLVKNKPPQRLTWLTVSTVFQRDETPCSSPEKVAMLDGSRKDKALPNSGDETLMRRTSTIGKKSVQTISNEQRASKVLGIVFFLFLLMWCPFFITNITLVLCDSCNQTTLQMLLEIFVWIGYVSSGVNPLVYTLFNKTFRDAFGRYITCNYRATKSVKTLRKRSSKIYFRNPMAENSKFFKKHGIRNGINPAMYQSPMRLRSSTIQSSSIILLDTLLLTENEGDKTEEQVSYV

5-HT2C = target: T3, 5-HT2C (Homo sapiens, UniProt P28335); experiment: Off-target binding screen; settings: 1000 nM, read-out: % Inhibition of Control Specific Binding
T3 construct: Eurofins Pharma Discovery Services (contract screen)
T3 sequence (P28335 33-458): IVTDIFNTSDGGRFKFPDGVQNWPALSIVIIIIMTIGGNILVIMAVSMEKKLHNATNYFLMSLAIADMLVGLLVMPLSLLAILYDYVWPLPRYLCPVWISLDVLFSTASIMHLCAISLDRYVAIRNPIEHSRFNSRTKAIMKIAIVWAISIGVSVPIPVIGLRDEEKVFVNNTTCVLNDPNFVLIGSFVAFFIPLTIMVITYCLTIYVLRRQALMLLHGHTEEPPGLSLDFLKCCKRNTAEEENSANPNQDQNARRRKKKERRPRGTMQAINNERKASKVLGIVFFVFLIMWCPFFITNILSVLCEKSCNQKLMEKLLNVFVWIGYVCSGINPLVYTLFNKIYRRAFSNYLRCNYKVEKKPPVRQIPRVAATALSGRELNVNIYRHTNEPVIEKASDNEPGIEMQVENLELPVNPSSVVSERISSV

5-HT6 = target: T4, 5-HT6 (Homo sapiens, UniProt P50406); experiment: Off-target binding screen; settings: 1000 nM, read-out: % Inhibition of Control Specific Binding
T4 construct: Eurofins Pharma Discovery Services (contract screen)
T4 sequence (P50406 whole entry, species assumed): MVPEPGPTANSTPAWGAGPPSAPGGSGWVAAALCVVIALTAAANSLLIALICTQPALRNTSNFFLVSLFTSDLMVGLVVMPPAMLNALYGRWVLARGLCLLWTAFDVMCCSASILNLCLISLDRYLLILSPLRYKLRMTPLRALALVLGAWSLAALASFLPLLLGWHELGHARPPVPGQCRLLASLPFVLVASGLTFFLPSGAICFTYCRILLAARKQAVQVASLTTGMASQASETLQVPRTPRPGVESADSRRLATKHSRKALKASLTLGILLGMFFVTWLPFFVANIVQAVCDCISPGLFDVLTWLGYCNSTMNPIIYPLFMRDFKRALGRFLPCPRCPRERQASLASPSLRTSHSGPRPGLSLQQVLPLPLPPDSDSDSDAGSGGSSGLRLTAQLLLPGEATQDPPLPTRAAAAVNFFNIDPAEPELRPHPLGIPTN

5-HT7 = target: T5, 5-HT7 (Homo sapiens, UniProt P34969); experiment: Off-target binding screen; settings: read-out: % Inhibition of Control Specific Binding; for inhibition at 1 µM: 1000 nM
T5 construct: Eurofins Pharma Discovery Services (contract screen)
T5 sequence (P34969 whole entry, species assumed): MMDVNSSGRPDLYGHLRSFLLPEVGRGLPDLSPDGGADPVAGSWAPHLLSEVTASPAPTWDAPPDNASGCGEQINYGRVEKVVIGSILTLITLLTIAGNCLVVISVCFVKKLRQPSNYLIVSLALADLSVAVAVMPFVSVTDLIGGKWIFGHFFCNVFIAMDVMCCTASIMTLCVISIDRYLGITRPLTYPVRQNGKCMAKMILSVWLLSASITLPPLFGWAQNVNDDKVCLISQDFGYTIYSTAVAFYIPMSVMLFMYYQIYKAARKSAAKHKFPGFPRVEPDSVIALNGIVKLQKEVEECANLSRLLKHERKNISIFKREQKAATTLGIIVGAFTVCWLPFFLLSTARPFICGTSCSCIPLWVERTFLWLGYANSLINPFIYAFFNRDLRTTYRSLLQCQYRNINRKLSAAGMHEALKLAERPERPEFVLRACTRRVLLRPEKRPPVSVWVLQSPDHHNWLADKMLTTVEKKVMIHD

α2B = target: T6, α2B (Homo sapiens, UniProt P18089); experiment: Off-target binding screen; settings: read-out: % Inhibition of Control Specific Binding; for inhibition at 0.01 µM: 10 nM; for inhibition at 0.1 µM: 100 nM; for inhibition at 1 µM: 1000 nM
T6 construct: Eurofins Pharma Discovery Services (contract screen)
T6 sequence (P18089 1-450): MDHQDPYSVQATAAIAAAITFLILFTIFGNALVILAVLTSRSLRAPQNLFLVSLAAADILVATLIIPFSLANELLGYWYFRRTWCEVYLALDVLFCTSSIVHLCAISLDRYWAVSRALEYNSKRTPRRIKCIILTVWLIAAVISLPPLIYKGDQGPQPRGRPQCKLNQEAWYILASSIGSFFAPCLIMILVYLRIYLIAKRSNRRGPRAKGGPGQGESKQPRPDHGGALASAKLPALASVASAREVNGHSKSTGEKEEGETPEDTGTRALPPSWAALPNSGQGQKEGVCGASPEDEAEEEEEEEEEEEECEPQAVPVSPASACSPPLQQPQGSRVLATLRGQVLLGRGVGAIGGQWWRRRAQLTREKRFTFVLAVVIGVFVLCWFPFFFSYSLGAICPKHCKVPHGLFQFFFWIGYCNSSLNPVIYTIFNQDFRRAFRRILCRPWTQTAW

β2 = target: T7, β2 (Homo sapiens, UniProt P07550); experiment: Off-target binding screen; settings: 1000 nM, read-out: % Inhibition of Control Specific Binding
T7 construct: Eurofins Pharma Discovery Services (contract screen)
T7 sequence (P07550 whole entry): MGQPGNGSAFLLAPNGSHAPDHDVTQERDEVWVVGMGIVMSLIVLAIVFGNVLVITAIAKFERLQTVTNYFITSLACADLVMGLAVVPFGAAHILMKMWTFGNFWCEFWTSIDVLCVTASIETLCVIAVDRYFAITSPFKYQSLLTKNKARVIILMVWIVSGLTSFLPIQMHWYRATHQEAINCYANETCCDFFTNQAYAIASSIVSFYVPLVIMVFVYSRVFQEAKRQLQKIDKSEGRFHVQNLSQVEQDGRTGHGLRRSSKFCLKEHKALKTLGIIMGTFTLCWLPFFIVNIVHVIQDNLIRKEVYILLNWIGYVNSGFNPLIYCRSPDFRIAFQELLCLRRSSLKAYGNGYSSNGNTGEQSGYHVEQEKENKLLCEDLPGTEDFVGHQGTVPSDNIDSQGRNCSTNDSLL

D1 = target: T8, D1 (Homo sapiens, UniProt P21728); experiment: Off-target binding screen; settings: read-out: % Inhibition of Control Specific Binding; for inhibition at 1 µM: 1000 nM
T8 construct: Eurofins Pharma Discovery Services (contract assay)
T8 sequence (P21728 whole entry): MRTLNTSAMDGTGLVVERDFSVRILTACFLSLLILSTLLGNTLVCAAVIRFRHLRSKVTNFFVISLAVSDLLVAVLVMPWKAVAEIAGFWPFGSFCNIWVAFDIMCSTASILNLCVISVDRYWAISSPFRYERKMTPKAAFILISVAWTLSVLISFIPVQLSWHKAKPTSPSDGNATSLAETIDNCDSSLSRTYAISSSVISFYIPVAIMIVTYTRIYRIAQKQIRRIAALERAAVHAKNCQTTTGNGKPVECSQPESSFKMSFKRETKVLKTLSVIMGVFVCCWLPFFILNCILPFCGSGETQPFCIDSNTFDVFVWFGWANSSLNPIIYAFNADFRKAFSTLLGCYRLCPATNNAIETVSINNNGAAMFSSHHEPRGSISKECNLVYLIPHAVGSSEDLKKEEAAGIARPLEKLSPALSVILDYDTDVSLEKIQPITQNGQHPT

M4 = target: T9, M4 (Homo sapiens, UniProt P08173); experiment: Off-target binding screen; settings: 1000 nM, read-out: % Inhibition of Control Specific Binding
T9 construct: Eurofins Pharma Discovery Services (contract assay)
T9 sequence (P08173 1-479): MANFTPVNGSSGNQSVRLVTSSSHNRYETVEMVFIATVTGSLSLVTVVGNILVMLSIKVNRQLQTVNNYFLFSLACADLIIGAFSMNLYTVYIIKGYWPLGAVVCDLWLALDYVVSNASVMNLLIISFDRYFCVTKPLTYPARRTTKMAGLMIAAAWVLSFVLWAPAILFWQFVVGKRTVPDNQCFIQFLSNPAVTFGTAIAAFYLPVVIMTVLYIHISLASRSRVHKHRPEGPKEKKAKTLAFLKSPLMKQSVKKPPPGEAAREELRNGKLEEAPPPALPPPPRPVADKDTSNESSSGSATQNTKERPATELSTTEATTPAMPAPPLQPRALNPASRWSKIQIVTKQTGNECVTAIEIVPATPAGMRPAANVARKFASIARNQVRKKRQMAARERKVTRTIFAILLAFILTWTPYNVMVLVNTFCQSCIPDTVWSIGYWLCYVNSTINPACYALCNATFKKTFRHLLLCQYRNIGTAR

M5 = target: T10, M5 (Homo sapiens, UniProt P08912); experiment: Off-target binding screen; settings: read-out: % Inhibition of Control Specific Binding; for inhibition at 1 µM: 1000 nM
T10 construct: Eurofins Pharma Discovery Services (contract assay)
T10 sequence (P08912 1-532): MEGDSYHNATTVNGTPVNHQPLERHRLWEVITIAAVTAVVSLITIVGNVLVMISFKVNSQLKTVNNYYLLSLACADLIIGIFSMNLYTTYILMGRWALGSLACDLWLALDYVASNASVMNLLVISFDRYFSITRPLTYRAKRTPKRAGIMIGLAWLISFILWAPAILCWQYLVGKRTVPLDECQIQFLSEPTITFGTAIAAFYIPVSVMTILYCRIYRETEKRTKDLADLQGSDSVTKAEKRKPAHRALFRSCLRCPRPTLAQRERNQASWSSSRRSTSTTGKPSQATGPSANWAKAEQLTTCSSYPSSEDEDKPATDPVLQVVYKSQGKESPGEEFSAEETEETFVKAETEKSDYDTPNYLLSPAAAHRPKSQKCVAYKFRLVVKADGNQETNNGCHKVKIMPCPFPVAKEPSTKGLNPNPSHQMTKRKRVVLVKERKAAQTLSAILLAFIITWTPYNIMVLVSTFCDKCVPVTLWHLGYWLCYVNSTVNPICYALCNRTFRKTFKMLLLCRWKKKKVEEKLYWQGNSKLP

κ (KOR) = target: T11, κ (KOR) (Homo sapiens, UniProt P41145); experiment: Off-target binding screen; settings: 1000 nM, read-out: % Inhibition of Control Specific Binding
T11 construct: Eurofins Pharma Discovery Services (contract assay)
T11 sequence (P41145 whole entry): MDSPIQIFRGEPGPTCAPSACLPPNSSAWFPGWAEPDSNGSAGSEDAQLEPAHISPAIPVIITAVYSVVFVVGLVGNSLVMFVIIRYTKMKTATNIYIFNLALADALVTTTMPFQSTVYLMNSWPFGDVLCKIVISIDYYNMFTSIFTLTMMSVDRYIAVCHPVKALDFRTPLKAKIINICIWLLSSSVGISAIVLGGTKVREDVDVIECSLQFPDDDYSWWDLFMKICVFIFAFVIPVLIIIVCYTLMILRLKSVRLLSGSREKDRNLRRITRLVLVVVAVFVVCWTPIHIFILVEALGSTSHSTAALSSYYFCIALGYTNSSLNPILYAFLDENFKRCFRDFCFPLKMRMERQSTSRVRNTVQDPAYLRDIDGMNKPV

σ1 = target: T12, σ1 (Homo sapiens, UniProt Q99720); experiment: Off-target binding screen; settings: read-out: % Inhibition of Control Specific Binding; for inhibition at 0.01 µM: 10 nM; for inhibition at 0.1 µM: 100 nM; for inhibition at 1 µM: 1000 nM
T12 construct: Eurofins Pharma Discovery Services (contract assay)
T12 sequence (Q99720 whole entry): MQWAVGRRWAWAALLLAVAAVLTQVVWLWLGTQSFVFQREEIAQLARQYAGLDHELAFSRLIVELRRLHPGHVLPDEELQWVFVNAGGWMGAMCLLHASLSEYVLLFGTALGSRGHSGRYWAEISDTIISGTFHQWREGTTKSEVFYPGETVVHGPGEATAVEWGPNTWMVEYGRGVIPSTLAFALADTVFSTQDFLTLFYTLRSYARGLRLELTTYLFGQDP

NET = target: T13, NET (Homo sapiens, UniProt P23975); experiment: Off-target binding screen; settings: 1000 nM, read-out: % Inhibition of Control Specific Binding
T13 construct: Eurofins Pharma Discovery Services
T13 sequence (P23975 whole entry): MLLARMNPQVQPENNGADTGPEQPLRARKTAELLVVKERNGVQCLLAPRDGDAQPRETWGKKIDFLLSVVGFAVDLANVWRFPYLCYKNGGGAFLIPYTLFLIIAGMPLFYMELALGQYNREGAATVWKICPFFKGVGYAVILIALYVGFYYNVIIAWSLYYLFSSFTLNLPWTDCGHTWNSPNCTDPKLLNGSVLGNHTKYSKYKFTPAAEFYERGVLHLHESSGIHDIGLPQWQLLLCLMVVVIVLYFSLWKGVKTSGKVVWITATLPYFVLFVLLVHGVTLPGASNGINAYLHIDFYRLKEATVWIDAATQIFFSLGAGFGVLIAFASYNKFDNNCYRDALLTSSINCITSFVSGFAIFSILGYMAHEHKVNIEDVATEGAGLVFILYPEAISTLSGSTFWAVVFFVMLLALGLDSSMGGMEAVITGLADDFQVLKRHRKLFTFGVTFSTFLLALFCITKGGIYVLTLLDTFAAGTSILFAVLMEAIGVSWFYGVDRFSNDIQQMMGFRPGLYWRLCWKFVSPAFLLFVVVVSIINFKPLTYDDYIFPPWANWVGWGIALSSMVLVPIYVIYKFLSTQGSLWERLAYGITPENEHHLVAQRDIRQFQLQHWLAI

T1 sequence (Q12809 whole entry): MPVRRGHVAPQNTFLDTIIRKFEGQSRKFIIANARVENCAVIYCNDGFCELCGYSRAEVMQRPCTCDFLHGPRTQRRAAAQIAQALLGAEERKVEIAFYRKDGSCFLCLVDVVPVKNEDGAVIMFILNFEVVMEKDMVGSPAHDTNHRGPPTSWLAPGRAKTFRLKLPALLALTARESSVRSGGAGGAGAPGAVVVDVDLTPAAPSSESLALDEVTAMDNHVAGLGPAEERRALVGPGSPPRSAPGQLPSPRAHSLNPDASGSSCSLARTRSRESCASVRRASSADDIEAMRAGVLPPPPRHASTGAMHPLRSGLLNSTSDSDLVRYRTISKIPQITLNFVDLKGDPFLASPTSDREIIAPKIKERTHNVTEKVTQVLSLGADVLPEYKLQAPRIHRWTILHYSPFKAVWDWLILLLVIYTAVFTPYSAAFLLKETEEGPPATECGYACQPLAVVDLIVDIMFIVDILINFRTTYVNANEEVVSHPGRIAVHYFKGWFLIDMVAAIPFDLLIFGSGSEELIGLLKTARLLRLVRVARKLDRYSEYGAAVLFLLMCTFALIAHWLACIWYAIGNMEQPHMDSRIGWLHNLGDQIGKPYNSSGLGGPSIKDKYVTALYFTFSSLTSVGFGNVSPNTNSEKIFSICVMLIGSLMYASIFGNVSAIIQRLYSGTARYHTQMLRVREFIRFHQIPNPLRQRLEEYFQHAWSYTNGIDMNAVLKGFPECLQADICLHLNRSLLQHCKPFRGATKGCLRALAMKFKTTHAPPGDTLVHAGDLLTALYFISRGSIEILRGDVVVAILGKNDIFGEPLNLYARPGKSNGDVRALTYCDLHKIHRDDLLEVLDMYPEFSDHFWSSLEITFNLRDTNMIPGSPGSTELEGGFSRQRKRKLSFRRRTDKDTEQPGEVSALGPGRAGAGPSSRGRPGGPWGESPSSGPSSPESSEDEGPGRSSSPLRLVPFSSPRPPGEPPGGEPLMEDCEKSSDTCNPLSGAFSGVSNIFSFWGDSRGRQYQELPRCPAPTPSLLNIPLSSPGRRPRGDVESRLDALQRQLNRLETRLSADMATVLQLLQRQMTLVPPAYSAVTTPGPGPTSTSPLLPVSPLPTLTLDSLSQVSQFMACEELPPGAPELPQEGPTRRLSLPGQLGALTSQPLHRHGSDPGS

In the case of O=C(c1ccc(F)c(Cl)c1)N1CCC(F)(CNCCOc2cccc3[nH]ccc23)CC1 [Compound 56, (4-(((2-((1H-Indol-4-yl)oxy)ethyl)amino)methyl)-4-fluoropiperidin-1-yl)(3-chloro-4-fluorophenyl)methanone], the “% Inhibition of Tail Current in hERG-CHO” value (hERG channel; 0,1 µM) is reported as 0.3%, the “% Inhibition of Tail Current in hERG-CHO” value (hERG channel; 1 µM) is reported as 6.4% and the “% Inhibition of Tail Current in hERG-CHO” value (hERG channel; 10 µM) is reported as 21.1%. It also gave an inhibition at 1 µM (5-HT2B) of 48%, an inhibition at 1 µM (5-HT2C) of 6% and an inhibition at 1 µM (5-HT6) of 1%. For the same molecule, the inhibition at 0.001 µM (5-HT7; 1 nM) was 5%, the inhibition at 0.01 µM (5-HT7; 10 nM) was 32% and the inhibition at 0.1 µM (5-HT7; 100 nM) was 68%. The inhibition at 0.01 µM (α2B) was -8%, the inhibition at 0.1 µM (α2B) was 29% and the inhibition at 1 µM (α2B) was 75%. For the same molecule, the inhibition at 1 µM (β2) was 9%, the inhibition at 0.01 µM (D1; 10 nM) was 12% and the inhibition at 0.1 µM (D1; 100 nM) was 52%. For the same molecule, the inhibition at 1 µM (D1) was 89%, the inhibition at 1 µM (M4) was -10% and the inhibition at 0.01 µM (M5; 10 nM) was 4%. The inhibition at 0.1 µM (M5; 100 nM) was -3%, the inhibition at 1 µM (M5) was 54% and the inhibition at 1 µM (κ (KOR)) was 6%. It also gave an inhibition at 0.01 µM (σ1) of 1%, an inhibition at 0.1 µM (σ1) of 22% and an inhibition at 1 µM (σ1) of 86%. It also gave an inhibition at 1 µM (NET) of 5%.
For O=C(c1ccc(F)c(Cl)c1)N1CCC(F)(CNCCOc2ccccc2)CC1 [Compound 3], the “% Inhibition of Tail Current in hERG-CHO” value (hERG channel; 0,1 µM) was 1.0%, the “% Inhibition of Tail Current in hERG-CHO” value (hERG channel; 1 µM) was 14.2% and the “% Inhibition of Tail Current in hERG-CHO” value (hERG channel; 10 µM) was 64.9%. For the same molecule, the inhibition at 1 µM (5-HT2B) was 11%, the inhibition at 1 µM (5-HT2C) was -15% and the inhibition at 1 µM (5-HT6) was -9%. For the same molecule, the inhibition at 1 µM (5-HT7) was 30%, the inhibition at 0.01 µM (α2B) was -2% and the inhibition at 0.1 µM (α2B) was 45%. The inhibition at 1 µM (α2B) was 85%, the inhibition at 1 µM (β2) was 2% and the inhibition at 1 µM (D1) was 30%. For the same molecule, the inhibition at 1 µM (M4) was -9%, the inhibition at 1 µM (M5) was 3% and the inhibition at 1 µM (κ (KOR)) was 4%. It also gave an inhibition at 0.01 µM (σ1) of 1%, an inhibition at 0.1 µM (σ1) of 15% and an inhibition at 1 µM (σ1) of 88%. The inhibition at 1 µM (NET) was -7%.
For CNc1ccccc1OCCNCC1(F)CCN(C(=O)c2ccc(F)c(Cl)c2)CC1 [Compound 44, (3-Chloro-4-fluorophenyl)(4-fluoro-4-(((2-(2-(methylamino)phenoxy)ethyl)amino)methyl)piperidin-1-yl)methanone], the “% Inhibition of Tail Current in hERG-CHO” value (hERG channel; 1 µM) was 17.5%, the inhibition at 1 µM (5-HT2B) was 23% and the inhibition at 1 µM (5-HT2C) was -9%. It also gave an inhibition at 1 µM (5-HT6) of 3%, an inhibition at 1 µM (5-HT7) of 11% and an inhibition at 1 µM (α2B) of -2%. It also gave an inhibition at 1 µM (β2) of -3%, an inhibition at 1 µM (D1) of 36% and an inhibition at 1 µM (M4) of -11%. The inhibition at 1 µM (M5) was -1%, the inhibition at 1 µM (κ (KOR)) was -2% and the inhibition at 0.01 µM (σ1) was 11%. It also gave an inhibition at 0.1 µM (σ1) of 31%, an inhibition at 1 µM (σ1) of 84% and an inhibition at 1 µM (NET) of 0%.
